Holding throughout (type): biochemical
In assay [1] the target is CDK1/Cyclin B1 (Homo sapiens, UniProt P06493). The assay can be described thus: CDK1/Cyclin B1 kinase assay (Nanosyn, Caliper microfluidic). The settings on record: 12-point dose-response, ATP at Km (40 μM), 3 hr. The procedure: (§1) Selected compounds disclosed herein were tested in kinase assays by Nanosyn (Santa Clara, Calif.) to determine their inhibitory effect on selected CDKs. The assays were performed using microfluidic kinase detection technology (Caliper Assay Platform). The compounds were tested in 12-point dose-response format in singlicate at Kmfor ATP. Phosphoacceptor substrate peptide concentration used was 1 μM for all assays and Staurosporine was used as the reference compound for all assays. Specifics of each assay are as described below: CDK1/Cyclin B1: Enzyme concentration: 0.08 nM; ATP concentration: 40 μM; Incubation time: 3 hr.

In assay [2] the target is CDK2/Cyclin A (Homo sapiens, UniProt P24941). The assay can be described thus: CDK2/Cyclin A kinase assay (Nanosyn, Caliper microfluidic). The settings on record: 12-point dose-response, ATP at Km (50 μM), 3 hr. As to the method: as §1, with “CDK2/Cyclin A:” for “CDK1/Cyclin B1:”, “0.1” for “0.08”, “50” for “40”
The target of assay [3] is CDK2/Cyclin E (Homo sapiens, UniProt P24941). The assay can be described thus: CDK2/Cyclin E kinase assay (Nanosyn, Caliper microfluidic). The settings on record: 12-point dose-response, ATP at Km (100 μM), 3 hr. The procedure:
as §1, with “CDK2/Cyclin E:” for “CDK1/Cyclin B1:”, “0.15” for “0.08”, “100” for “40”

In assay [4] the target is CDK3/Cyclin E (Homo sapiens, UniProt Q00526). In words: CDK3/Cyclin E kinase assay (Nanosyn, Caliper microfluidic). The settings on record: 12-point dose-response, ATP at Km (400 μM), 3 hr. The procedure: as §1, with “CDK3/Cyclin E:” for “CDK1/Cyclin B1:”, “1” for “0.08”, “400” for “40”
Assay [5] addresses CDK4/Cyclin D1 (Homo sapiens, UniProt P11802). The assay can be described thus: CDK4/Cyclin D1 kinase assay (Nanosyn, Caliper microfluidic). Conditions: 12-point dose-response, ATP at Km (200 μM), 3 hr; Table 4. The procedure:
as §1, with “CDK4/Cyclin D1:” for “CDK1/Cyclin B1:”, “1” for “0.08”, “200” for “40”

For assay [6], the target named is CDK5/p35 (Homo sapiens, UniProt Q00535). In words: CDK5/p35 kinase assay (Nanosyn, Caliper microfluidic). The settings on record: 12-point dose-response, ATP at Km (20 μM), 3 hr. The procedure:
as §1, with “CDK5/p35:” for “CDK1/Cyclin B1:”, “0.05” for “0.08”, “20” for “40”

In assay [7] the target is CDK5/p25 (Homo sapiens, UniProt Q00535). In words: CDK5/p25 kinase assay (Nanosyn, Caliper microfluidic). Conditions: 12-point dose-response, ATP at Km (20 μM), 3 hr. The procedure: as §1, with “CDK5/p25:” for “CDK1/Cyclin B1:”, “0.1” for “0.08”, “20” for “40”
The target in assay [8] is CDK6/Cyclin D3 (Homo sapiens, UniProt Q00534). In words: CDK6/Cyclin D3 kinase assay (Nanosyn, Caliper microfluidic). Conditions: 12-point dose-response, ATP at Km (300 μM), 3 hr. As to the method: as §1, with “CDK6/Cyclin D3:” for “CDK1/Cyclin B1:”, “2” for “0.08”, “300” for “40”
For assay [9], the target named is CDK7/Cyclin H (Homo sapiens, UniProt P50613). The assay can be described thus: CDK7/Cyclin H kinase assay (Nanosyn, Caliper microfluidic). Conditions: 12-point dose-response, ATP at Km (50 μM), 17 hr. As to the method:
as §1, with “CDK7/Cyclin H:” for “CDK1/Cyclin B1:”, “10” for “0.08”, “50” for “40”, “17” for “3”

Assay [10] has as its target CDK9/Cyclin T (Homo sapiens, UniProt P50750). The assay can be described thus: CDK9/Cyclin T kinase assay (Nanosyn, Caliper microfluidic). Conditions: 12-point dose-response, ATP at Km (10 μM), 17 hr; Table 5. As to the method: as §1, with “[…]:” for “CDK1/Cyclin B1:”, “5” for “0.08”, “10” for “40”, “17” for “3”

Where only a bound is given, the exact number is not on record here.

For orientation: IC50 means the point on the concentration scale where inhibition reaches its midpoint. Lower therefore signals inhibition by little substance.

CDK5/p25, sequence (Q00535 whole entry): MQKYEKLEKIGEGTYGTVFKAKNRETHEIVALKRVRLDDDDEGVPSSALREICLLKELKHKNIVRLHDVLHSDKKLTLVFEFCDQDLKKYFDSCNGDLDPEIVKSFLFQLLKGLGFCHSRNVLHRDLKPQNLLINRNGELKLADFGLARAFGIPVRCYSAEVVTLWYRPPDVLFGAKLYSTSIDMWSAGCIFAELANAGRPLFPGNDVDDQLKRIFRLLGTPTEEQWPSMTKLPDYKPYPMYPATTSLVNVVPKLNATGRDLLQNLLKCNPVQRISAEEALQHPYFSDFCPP
CDK5/p25, sequence (Q15078 99-307 partner limits assumed): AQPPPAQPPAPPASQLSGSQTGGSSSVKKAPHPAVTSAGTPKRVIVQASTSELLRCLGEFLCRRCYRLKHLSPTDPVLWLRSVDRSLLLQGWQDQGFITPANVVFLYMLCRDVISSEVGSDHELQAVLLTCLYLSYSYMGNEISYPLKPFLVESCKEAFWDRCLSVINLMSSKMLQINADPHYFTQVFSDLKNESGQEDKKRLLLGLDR
CDK5/p35, sequence (Q00535 whole entry): as the sequence (Q00535 whole entry) above
CDK5/p35, sequence (Q15078 whole entry partner): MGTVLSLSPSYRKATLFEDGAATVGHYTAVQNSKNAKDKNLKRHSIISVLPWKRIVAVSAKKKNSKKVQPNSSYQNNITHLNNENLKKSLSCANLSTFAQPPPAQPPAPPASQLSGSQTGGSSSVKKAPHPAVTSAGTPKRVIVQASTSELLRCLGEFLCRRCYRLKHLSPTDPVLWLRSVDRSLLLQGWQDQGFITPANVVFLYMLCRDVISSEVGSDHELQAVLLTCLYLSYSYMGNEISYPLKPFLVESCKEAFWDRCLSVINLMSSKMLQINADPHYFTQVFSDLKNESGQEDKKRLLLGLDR
CDK4/Cyclin D1, sequence (P11802 whole entry): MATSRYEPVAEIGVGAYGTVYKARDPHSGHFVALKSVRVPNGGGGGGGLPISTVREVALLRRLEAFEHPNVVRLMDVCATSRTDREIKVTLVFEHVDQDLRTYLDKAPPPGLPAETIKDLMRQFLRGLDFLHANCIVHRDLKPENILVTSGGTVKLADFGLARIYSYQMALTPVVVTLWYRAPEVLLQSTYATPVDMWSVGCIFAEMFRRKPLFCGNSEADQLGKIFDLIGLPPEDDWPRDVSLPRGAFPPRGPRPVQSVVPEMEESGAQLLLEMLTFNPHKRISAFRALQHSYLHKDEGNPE
CDK4/Cyclin D1, sequence (P24385 whole entry partner): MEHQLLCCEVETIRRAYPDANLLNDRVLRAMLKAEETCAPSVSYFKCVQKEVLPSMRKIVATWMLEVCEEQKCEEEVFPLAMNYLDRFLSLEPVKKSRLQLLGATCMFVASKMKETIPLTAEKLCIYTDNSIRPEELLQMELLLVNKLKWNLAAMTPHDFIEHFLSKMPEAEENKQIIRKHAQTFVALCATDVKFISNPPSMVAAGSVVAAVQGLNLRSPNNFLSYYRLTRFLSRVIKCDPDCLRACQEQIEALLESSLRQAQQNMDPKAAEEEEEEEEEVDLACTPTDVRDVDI
CDK1/Cyclin B1, sequence (P06493 whole entry): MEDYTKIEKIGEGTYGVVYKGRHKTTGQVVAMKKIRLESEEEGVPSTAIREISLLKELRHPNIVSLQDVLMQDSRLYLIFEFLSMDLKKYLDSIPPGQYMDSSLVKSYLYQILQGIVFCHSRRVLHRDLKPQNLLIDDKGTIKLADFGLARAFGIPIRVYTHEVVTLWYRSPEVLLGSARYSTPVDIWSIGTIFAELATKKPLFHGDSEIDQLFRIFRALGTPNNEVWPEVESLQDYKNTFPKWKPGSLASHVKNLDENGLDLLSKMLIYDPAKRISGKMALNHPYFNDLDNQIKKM
CDK1/Cyclin B1, sequence (P14635 whole entry partner): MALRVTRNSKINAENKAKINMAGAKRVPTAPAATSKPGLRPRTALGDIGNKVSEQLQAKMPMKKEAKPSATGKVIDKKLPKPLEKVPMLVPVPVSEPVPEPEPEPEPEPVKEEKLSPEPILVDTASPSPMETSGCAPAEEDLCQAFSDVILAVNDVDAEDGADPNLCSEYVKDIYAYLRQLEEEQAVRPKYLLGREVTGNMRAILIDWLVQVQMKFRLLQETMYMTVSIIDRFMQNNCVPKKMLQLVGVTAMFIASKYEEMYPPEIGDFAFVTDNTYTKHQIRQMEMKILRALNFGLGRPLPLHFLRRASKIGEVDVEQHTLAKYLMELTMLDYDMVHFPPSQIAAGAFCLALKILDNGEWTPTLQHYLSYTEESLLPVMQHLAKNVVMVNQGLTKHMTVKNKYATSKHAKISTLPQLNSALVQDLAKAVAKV
CDK6/Cyclin D3, sequence (Q00534 whole entry): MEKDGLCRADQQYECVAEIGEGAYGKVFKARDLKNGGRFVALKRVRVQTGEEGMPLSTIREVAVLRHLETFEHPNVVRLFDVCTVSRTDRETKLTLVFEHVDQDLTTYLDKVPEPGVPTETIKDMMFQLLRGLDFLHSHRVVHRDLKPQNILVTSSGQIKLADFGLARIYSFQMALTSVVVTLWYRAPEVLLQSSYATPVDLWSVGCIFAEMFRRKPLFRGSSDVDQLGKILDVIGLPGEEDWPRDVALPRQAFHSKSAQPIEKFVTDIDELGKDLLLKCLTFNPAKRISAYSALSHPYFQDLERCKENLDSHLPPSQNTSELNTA
CDK6/Cyclin D3, sequence (P30281 whole entry partner): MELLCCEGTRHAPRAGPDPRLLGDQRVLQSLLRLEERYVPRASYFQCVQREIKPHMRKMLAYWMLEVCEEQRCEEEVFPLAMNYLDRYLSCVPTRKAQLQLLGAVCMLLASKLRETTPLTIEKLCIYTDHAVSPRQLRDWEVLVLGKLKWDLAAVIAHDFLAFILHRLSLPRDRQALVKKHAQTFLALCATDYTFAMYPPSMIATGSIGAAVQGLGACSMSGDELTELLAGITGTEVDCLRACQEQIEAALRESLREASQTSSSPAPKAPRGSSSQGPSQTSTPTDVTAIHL
CDK9/Cyclin T, sequence (P50750 whole entry): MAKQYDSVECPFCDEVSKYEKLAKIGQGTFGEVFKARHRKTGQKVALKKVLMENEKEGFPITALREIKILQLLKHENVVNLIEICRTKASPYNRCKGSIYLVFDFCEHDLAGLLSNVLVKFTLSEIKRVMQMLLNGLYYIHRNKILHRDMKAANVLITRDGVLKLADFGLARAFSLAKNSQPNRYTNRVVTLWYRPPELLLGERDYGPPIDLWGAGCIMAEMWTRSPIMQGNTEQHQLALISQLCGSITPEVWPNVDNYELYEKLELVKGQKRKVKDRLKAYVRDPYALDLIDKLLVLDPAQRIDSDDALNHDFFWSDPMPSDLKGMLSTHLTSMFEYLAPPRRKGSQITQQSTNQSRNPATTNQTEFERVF
CDK9/Cyclin T, sequence (O60563 whole entry partner): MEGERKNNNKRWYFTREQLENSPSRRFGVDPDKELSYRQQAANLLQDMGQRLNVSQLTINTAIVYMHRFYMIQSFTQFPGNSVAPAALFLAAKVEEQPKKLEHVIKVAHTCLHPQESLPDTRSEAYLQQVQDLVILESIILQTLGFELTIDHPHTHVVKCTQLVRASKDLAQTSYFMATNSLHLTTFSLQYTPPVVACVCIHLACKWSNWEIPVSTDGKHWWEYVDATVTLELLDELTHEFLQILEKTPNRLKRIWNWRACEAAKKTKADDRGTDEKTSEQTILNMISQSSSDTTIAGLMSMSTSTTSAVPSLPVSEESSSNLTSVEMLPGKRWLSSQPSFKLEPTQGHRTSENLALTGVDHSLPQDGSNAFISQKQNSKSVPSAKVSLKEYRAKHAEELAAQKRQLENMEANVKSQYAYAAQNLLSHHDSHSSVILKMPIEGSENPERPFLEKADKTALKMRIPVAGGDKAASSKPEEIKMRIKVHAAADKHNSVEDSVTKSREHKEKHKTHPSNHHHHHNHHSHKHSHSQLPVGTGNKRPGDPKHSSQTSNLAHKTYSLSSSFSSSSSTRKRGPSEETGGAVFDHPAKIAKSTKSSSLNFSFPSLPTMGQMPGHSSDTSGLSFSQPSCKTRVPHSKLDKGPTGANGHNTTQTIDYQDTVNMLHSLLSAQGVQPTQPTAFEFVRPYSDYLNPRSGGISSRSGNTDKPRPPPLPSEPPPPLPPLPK

Take `O=C1NCC2(CCCCC2)n2c1cc1cnc(N[C@H]3CC[C@H](NCc4ccccc4F)CC3)nc12` [Compound 20, 2′-(((1,4-trans)-4-((2-fluorobenzyl)amino)cyclohexyl)amino)-7′,8′-dihydro-6′H-spiro[cyclohexane-1,9′-pyrazino[1′,2′:1,5]pyrrolo[2,3-d]pyrimidin]-6′-one]: the 50% inhibitory concentration (IC50) is 0.36 µM in assay [1]; 0.18 µM in assay [2]; 0.31 µM in assay [3]; 0.4 µM in assay [4]; 0.014 µM in assay [5]; 0.37 µM in assay [6]. The IC50 turned out to be 0.37 µM in assay [7], 0.078 µM in assay [8], 0.23 µM in assay [9] and 0.0047 µM in assay [10].
For the compound `O=C1NCC2(CCCCC2)n2c1cc1cnc(N[C@H]3CC[C@H](NCc4cccnc4)CC3)nc12` [Compound 21, 2′-(((1,4-trans)-4-((pyridin-3-ylmethyl)amino)cyclohexyl)amino)-7′,8′-dihydro-6′H-spiro[cyclohexane-1,9′-pyrazino[1′,2′:1,5]pyrrolo[2,3-d]pyrimidin]-6′-one], the IC50 in assay [1] is 0.31 µM; in assay [2], 0.14 µM; in [3] it was 0.22 µM; in [4], 0.29 µM; in assay [5], 0.014 µM; in assay [6] it was 0.35 µM. In addition, the IC50 in [7] was 0.32 µM; in assay [8], 0.071 µM; in [9], 0.11 µM; in [10], 0.0021 µM.
For the compound `CS(=O)(=O)N[C@H]1CC[C@H](Nc2ncc3cc4n(c3n2)C2(CCCCC2)CNC4=O)CC1` [Compound 22, N-((1,4-trans)-4-((6′-oxo-7′,8′-dihydro-6′H-spiro[cyclohexane-1,9′-pyrazino[1′,2′:1,5]pyrrolo[2,3-d]pyrimidin]-2′-yl)amino)cyclohexyl)methanesulfonamide], the IC50 was determined as 0.41 µM in [1]; 0.078 µM in assay [2]; 0.19 µM in [3]; 0.51 µM in assay [4]; 0.069 µM in assay [5]; 0.17 µM in [6]. The 50% inhibitory concentration (IC50) in assay [7] worked out at 0.23 µM; in assay [8], 0.35 µM; in [9] it was 3.4 µM; in [10], 0.056 µM.
For `O=C1NCC2(CCCCC2)n2c1cc1cnc(N[C@H]3CCCNC3=O)nc12` [Compound 23, (S)-2′-((2-oxopiperidin-3-yl)amino)-7′,8′-dihydro-6′H-spiro[cyclohexane-1,9′-pyrazino[1′,2′:1,5]pyrrolo[2,3-d]pyrimidin]-6′-one], the IC50 came out at 39 µM in assay [1]; 28 µM in assay [2]; 35 µM in assay [3]; 56 µM in assay [4]; 0.17 µM in assay [5]; 47 µM in assay [6]. Also, the IC50 in assay [7] came to 55 µM; in [8], 0.94 µM; in assay [9] it was 61 µM; in [10], 0.69 µM.
Turning to `O=C1CC[C@H](Nc2ncc3cc4n(c3n2)C2(CCCCC2)CNC4=O)CN1` [Compound 24, (S)-2′-((6-oxopiperidin-3-yl)amino)-7′,8′-dihydro-6′H-spiro[cyclohexane-1,9′-pyrazino[1′,2′:1,5]pyrrolo[2,3-d]pyrimidin]-6′-one], the IC50 in [1] worked out at 0.56 µM; in assay [2], 0.22 µM; in assay [3], 0.24 µM; in assay [4] it was 0.29 µM; in assay [5], 0.25 µM; in [6], 0.33 µM. Further, the IC50 in [7] turned out to be 0.26 µM; in assay [8], 1 µM; in [9] it was 0.47 µM; in assay [10], 0.025 µM.
Take `O=C1NCC2(CCCCC2)n2c1cc1cnc(N[C@H]3Cc4ccccc4NC3=O)nc12` [Compound 27, (S)-2′-((2-oxo-1,2,3,4-tetrahydroquinolin-3-yl)amino)-7′,8′-dihydro-6′H-spiro[cyclohexane-1,9′-pyrazino[1′,2′:1,5]pyrrolo[2,3-d]pyrimidin]-6′-one]: the IC50 came to 8.9 µM in [1]; 8 µM in assay [2]; 11 µM in assay [3]; 26 µM in assay [4]; 0.27 µM in assay [5]; 10 µM in assay [6]. Besides, the IC50 in assay [7] came to 9.6 µM; in [8], 0.97 µM; in assay [9] it was 14 µM; in assay [10], 0.56 µM.
Regarding `O=C1NCC2(CCCCC2)n2c1cc1cnc(NC(=O)[C@H]3CNCC[C@H]3c3ccccc3)nc12` [Compound 28, (3R,4R)-N-(6′-oxo-7′,8′-dihydro-6′H-spiro[cyclohexane-1,9′-pyrazino[1′,2′:1,5]pyrrolo[2,3-d]pyrimidin]-2′-yl)-4-phenylpiperidine-3-carboxamide], the IC50 in assay [1] was 93 µM; in [2], 67 µM; in assay [3] it was greater than 100 µM; in assay [4], greater than 100 µM; in assay [5], 9 µM; in [6] it was greater than 100 µM. Moreover, the half-inhibitory concentration (IC50) in assay [7] is greater than 100 µM; in assay [8], greater than 100 µM; in assay [9], greater than 100 µM; in [10] it was 0.24 µM.
